Patent US12036223B2, “Small molecule trail gene induction by normal and tumor cells as an anticancer therapy” (The Penn State Research Foundation, priority 2011, dated 2024)
Read-outs that look alike come from different tables or passages of the source.

Tests used:
[1] = tested on: SF767 intracranial tumors; assay: Overall survival of mice harboring SF767 intracranial tumors; type: in vivo, athymic nude mice; details: for Median Survival: TIC10 25 mg/kg oral, bevacizumab 10 mg/kg i.v.
Method: For intracranial xenografts, anesthetized athymic nude mice were implanted with 2×10^5 SF767 cells in a 25 μL suspension of serum- and antibiotic-free RPMI. The site of injection was a burr hole created 1 mm lateral to the midline of the skull and 1 mm anterior to the coronal suture. The injection was gradually administered over 5 minutes with a Hamilton syringe and the burr hole was sealed using bone wax. Tumor take was assessed by bioluminescent imaging 2 weeks following implantation. Bioluminescent imaging of tumors was carried out on an IVIS imaging system as described in Wang et al., 2003, PNAS 100:15095-15100.

[2] = tested on: Eμ-Myc transgenic mice that spontaneously develop lymphoma; details: weekly oral TIC10 25 mg/kg during weeks 9-12 of age
Method: Near-infrared imaging of mice was carried out on a Pearl Impulse imaging system (LI-COR) following tail-vein injection of AngioSense® 680 (VisEn Medical, Woburn, MA) according to the manufacturer's protocols. 6 week old Eμ-myc mice were obtained from The Jackson Laboratory (B6.Cg-Tg(IghMyc)22Bri/J).
P value determined by log-rank test. For relative tumor volume plots, tumor size is expressed relative to the tumor size on day 0, which is defined as the day of treatment initiation.

[3] = tested on: TRAIL
Method: (§1) Tissue analyses. […] Serum was then removed following centrifugation for 5 minutes.
ELISA for TRAIL was carried out using the Quantikine® TRAIL/TNFSF10 kit according to the manufacturer's protocol (DTRL00, R&D systems, Minneapolis, MN). […] Absorbances were measured with a DTX 880 plate reader (Beckman Coulter).
(§2) Error bars indicate s.d. of replicates.

[4] = tested on: GBM cell lines; assay: Cell viability assays of GBM cell lines; type: cell-based, human; details: 72 hr post-treatment, p53-independent
Method: For all flow cytometry analyses, floating and adherent cells were analyzed on a Coulter-Beckman Elite Epics cytometer. […] Cells were gated on forward and side scatter to eliminate debris and dead cells from the analysis. […] Cell viability assays were carried out in 96-well black-walled clear-bottom plates using CellTiter-Glo® (Promega) according to the manufacturer's protocols. Imaging and quantification of these assays were performed on an IVIS imaging system (Xenogen).

[5] = tested on: HCT116 p53−/− xenograft; assay: HCT116 p53−/− subcutaneous xenograft; type: in vivo, athymic nu/nu mice; details: 3 doses on day 0, 3 and 6, TIC10 i.p.
Method: (§4) For subcutaneous xenografts, 4-6 week old female, athymic nu/nu mice (Charles River Laboratories) were inoculated with 1×10^6 cells (2.5×10^6 for T98G) of indicated cell lines in each rear flank as a 200 μL suspension of 1:1 Matrigel (BD):PBS. All intraperitoneal and intravenous injections were given at a total volume of 200 μL. […] Tumors were monitored using digital calipers at indicated time points. All subcutaneous tumors were allowed to establish for 1-4 weeks post-injection until reaching a volume of ˜125 mm^3 before treatment initiation. Relief of tumor burden was monitored for 3 weeks following disappearance of the tumor and confirmed by visual inspection after euthanasia.
(§5) Error bars indicate standard deviation (s.d.) of replicates. *P<0.05 and **P<0.005 between the indicated condition and control unless otherwise indicated.

[6] = tested on: SW480 xenograft; assay: SW480 subcutaneous xenograft; type: in vivo, athymic nu/nu mice; details: single dose 30 mg/kg, intraperitoneal or oral delivery
Method: as §4

[7] = tested on: HCT116 xenograft; assay: HCT116 xenograft, single oral dose titration; type: in vivo, athymic nu/nu mice; details: 25 mg/kg
Method: as §4, §5

[8] = tested on: subcutaneous T98G xenografts; assay: T98G subcutaneous xenograft; type: in vivo, athymic nu/nu mice; details: single oral dose, 30 mg/kg
Method: TIC10 was tested in preclinical models of GBM as a monoagent and in combination with bevacizumab.

[9] = tested on: intracecal HCT116 p53−/− tumors; details: multi-dose regimen, once a week
Method: Intracecal implantation was performed as described in Cespedes, M. V., et al., Am J Pathol, 2007, 170(3): p. 1077-1085.
FIG. 37 is a graph showing percent of cohorts with implanted with intracecal HCT116 p53^−/− tumors with evident tumors at the primary and distal sites at endpoint (n=5).
FIG. 38 is a graph showing body weight of mice at endpoint. Error bars indicate s.d. of replicates.

[10] = Blood-brain barrier crossing; details: in vivo
[11] = tested on: HCT116 cells; assay: Cell viability in HCT116 cells after 1 hr pre-incubation of agent at indicated temperatures; type: cell-based, human; details: TIC10 5 μM, 1 hr pre-incubation at indicated temperatures, 72 hr
[12] = tested on: TRAIL mRNA in HCT116 p53−/− cells; assay: RT-qPCR analysis of TRAIL mRNA levels; type: cell-based, human; details: 48 hr
Method: Total RNA was extracted using RNeasy Minikit (Qiagen) by following the manufacturer's instructions. cDNA was generated using SuperScript II (Invitrogen) with 1 μg of RNA and oligodT. […] PCR amplification was performed with the Applied Biosystems 7900HT Fast Real-time Detection System. Samples were standardized to 10 ng/μl and twenty ng of cDNA per sample was then utilized as a template for real-time PCR using a SYBR Green Master Mix (Qiagen Corp, USA). Samples were normalized to GAPDH used under identical conditions. Quantitation used the 2ΔΔCt method of crossing thresholds described in Livak et al., 2001, Methods. […] Reactions were performed in 384 well optical plates in a 7900HT instrument (Applied Biosystems), with 10 ul reaction volumes. Data analysis used the ABI PRISM 7900 Sequence Detection System 2.2 software. To exclude the possibility of genomic DNA contamination, control PCR reactions with no cDNA template and No-RT control samples were also performed for each gene-specific primer set. Quadruplicates of each PCR reaction were performed and the resultant data was averaged.

[13] = tested on: surface TRAIL in a panel of cancer cells; assay: Surface TRAIL by flow cytometry in cancer cell lines; type: cell-based, human; details: 72 hr, p53-independent
[14] = tested on: freshly resected colon tumor cells from a human patient; details: TIC10 0.6-20 μM
Method: (§3) For all flow cytometry analyses, floating and adherent cells were analyzed on a Coulter-Beckman Elite Epics cytometer. For surface TRAIL experiments, adherent cells were harvested by brief trypsinization, fixed in 4% paraformaldehyde in PBS for 20 min, incubated with an anti-TRAIL antibody for 2 hr (Abeam), washed and incubated with anti-rabbit Alexafluor 488 (Invitrogen) for 30 min, and analyzed. Cells were gated on forward and side scatter to eliminate debris and dead cells from the analysis. Surface TRAIL data is expressed as median fluorescence intensity relative to that of control samples unless indicated as otherwise. For Sub-G1 and cell cycle profile experiments, all cells were pelleted and ethanol fixed followed by staining with propidium iodide (Sigma) in the presence of RNAse. Cell viability assays were carried out in 96-well black-walled clear-bottom plates using CellTiter-Glo® (Promega) according to the manufacturer's protocols. Imaging and quantification of these assays were performed on an IVIS imaging system (Xenogen).
as §2

[15] = tested on: pAkt and pERK in HCT116 p53−/− cells; assay: Western blot analysis of pAkt and pERK; type: cell-based, human; details: TIC10 2.5, 5, 10 μM, 72 hr, dose-dependent
Method: Western blot analysis was conducted as described in Wang, W. et al., PNAS 103, 11003-11008, 2006, using NuPAGE 4-12% Bis-Tris and visualized using Supersignal West Femto (Thermo Scientific) and X-ray film. Nuclear and cytoplasmic extracts were prepared using a cytoplasmic lysis buffer (10 mM HEPES, 10 mM KCl, and 2 mM MgCl2, 1 mM DTT) followed by a nuclear lysis buffer (20 mM HEPES, 420 mM NaCl, 1.5 mM MgCl2, 250 μM EDTA, 25% glycerol). For all lysis buffers, fresh protease inhibitor (Roche) and 1 mM sodium orthovanadate was added immediately prior to use.
TIC10-induced changes in regulators of Foxo3a such as IKK, Akt, and ERK were determined.
FIG. 61 is a graph showing time course of protein expression levels of TIC10-induced effects determined by densitometry of Western blots from replicate experiments as in FIG. 60 (n=3). Data is express relative to the control sample for each time point and normalized to Ran. TRAIL was quantified by flow cytometry as a parallel experiment (n=3).

[16] = tested on: TRAIL; details: TIC10 100 mg/kg i.v.
Method: as §1

[17] = tested on: cancer cell lines; assay: Colony formation assays, cancer cell lines; type: cell-based, human; details: 10 μM, 72 hr
[18] = tested on: HCT116 p53−/− cells; assay: Sub-G1 / cell cycle profile, HCT116 p53−/− cells; type: cell-based, human; details: 5 μM, 72 hr
Method: as §3

[19] = tested on: HFF cells; details: 5 μM, 72 hr
Method: as §3

[20] = tested on: freshly isolated GBM cells; details: temozolomide-resistant, previously irradiated, 72 hr
Method: as §3

[21] = tested on: human TRAIL gene promoter in HCT116 Bax−/− cells; details: first 504 base pairs of the TRAIL promoter
Method: Bioluminescent high-throughput screening using the NCI diversity set II was carried out in HCT116 Bax^−/− cells that were stably cotransfected to express a firefly luciferase construct under transcriptional control of the first 504 base pairs of the TRAIL promoter upstream of the start of transcription of the human TRAIL gene. Compounds were tested at a working concentration of 20 nM, 200 nM, 500 nM, and 1 μM with bioluminescent assessment of transcriptional activity at 12, 24, 36, and 48 hours post-treatment.

[22] = tested on: DLD-1 xenografts; assay: DLD-1 subcutaneous xenograft; details: single dose, 1 week post-treatment, TIC10 i.p., TRAIL i.v.
Method: as §4

[23] = tested on: MDA-MB-231 human breast cancer xenografts; assay: MDA-MB-231 subcutaneous xenograft; details: single doses, TIC10 i.p., TRAIL i.v.
Method: as §4, §5

[24] = Pharmacokinetic analysis of TIC10 in plasma
Method: HPLC analysis was performed by absorbance detection at 239 nm on an Agilent 1200 series system (Agilent, Santa Clara, CA) using an Eclipse XDB-C18 column (Agilent) and a 100 μL injection loop. Isocratic elution at 1 mL/minute was carried out in 0.1% trifluoroacetic acid in dH2O. An acetonitrile (ACN) gradient was carried out for elution as 15-20% ACN at 0-5 minutes, 20-23% for 5-12 minutes, 25% for 12-18 minutes. […] For all plasma samples, blood was obtained by terminal cardiac puncture of the left ventricle and collected into EDTA tubes (BD). Samples were centrifuged at 500 g for 10 minutes. Plasma was deproteinated by the adding 30 μL of perchloric acid to 100 μL of samples, vortexed for 15 seconds, centrifuged for 2 minutes, and the supernatant was immediately injected into the HPLC. AUC was normalized to an internal serum peak with a retention time of 8.1 minutes. AUC data versus time was fit with a two-compartment open model with first order elimination from central compartment using the equation AUC=Ae^−αt+Be^−βt where t=time and A and B are the extrapolated concentrations at the initiation of the two phases (distribution and elimination). Half-lives calculated as t1/2α=0.693/α and t1/2β=0.693/β. Other equations used for calculation include CL=dose/AUC0-∞ and Vd=dose/(AUC0-∞Xβ).
Error bars represent standard error mean of replicates.

[25] = Body weight and liver histology of treated mice; details: TIC10 100 mg/kg i.p. single dose; 25 mg/kg oral weekly for 4 weeks
Method: Tissue analyses. Mice were humanely sacrificed at indicated time points and excised normal tissue or tumors were fixed in 4% paraformaldehyde/PBS overnight at 4° C. If plasma samples were desired, 500 μL of blood was collected by terminal cardiac puncture under anesthesia in EDTA-Vacutainer tubes (BD). Serum samples were collected in a similar fashion but in microcentrifuge tubes followed by a 30 minute incubation at room temperature to allow for clotting. Serum was then removed following centrifugation for 5 minutes. Paraffin-embedded blocks, serial section slides, and hematoxylin and eosin staining were prepared according to standard procedures. TUNEL staining was performed using the ApopTag® Peroxidase In Situ Apoptosis Detection Kit (Millipore). For IHC analysis, slides were dewaxed in xylene and hydrated in a decreasing gradient of ethanol. Antigen retrieval was carried out by boiling in 10 mM citric acid (pH 6.0) for 6 min. Samples were blocked with streptavidin and biotin blocking solutions and goat serum (Vector Laboratories). Primary antibodies were incubated overnight at 4° C. in a humidity chamber. Incubation with biotinylated secondary antibody and DAB deposition was carried out according the manufacturer's protocol (Vector Laboratories DAB Substrate Kit for Peroxidase). […] Images were recorded on an Axioskop microscope using QCapture software (QImaging).

[26] = tested on: HFF cells; assay: Colony formation parallel experiment, HFF cells
Method: Indicated cell lines were plated at 500 cells per well and treated the following day in fresh complete media after adherence. At 3 days post-treatment, the media was replaced with drug-free media and cells were propagated for 10 days with fresh media given once every 3 days. At the end of the 10 day period, cells were washed in PBS, fixed with methanol, and stained with Coomassie blue, rinsed, and dried for quantification.
Error bars indicate standard deviation (s.d.) of replicates. […] Error bars indicate standard deviation (s.d.) of replicates.

[27] = Serum chemistry of C57/B6 mice treated weekly for 4 weeks
Method: For CBC/differential and serum chemistry assays, 1 mL of blood was harvested from anesthetized mice by terminal cardiac puncture of the left ventricle. For serum chemistry, 500 μL, was placed into a microfuge tube and allowed to clot for 30 minutes at room temperature followed by centrifugation. Serum was removed, centrifuged again to remove any further clots, and serum was submitted for analysis. For CBC/differentials, 500 μL of blood was collected into EDTA tubes and analyzed.

[28] = TRAIL protein / recombinant TRAIL, cited from earlier work
[29] = single dose at 2 weeks post-implantation
[30] = tumor-free mice, TIC10 100 mg/kg i.v.
[31] = 25 mg/kg intravenous, plasma, two-compartment model
[32] = female, C57/B6, mouse, in vivo, iv, 25 mg/kg
[33] = serum, TIC10 25 mg/kg oral weekly for 4 weeks

## Cc1ccccc1CN1C(=O)C2=C(CCN(Cc3ccccc3)C2)N2CCN=C12 [TIC10]
[1]; [29]
  Median Survival: 74 days
[1]; single dose, intracranial xenograft of human GBM
  change in overall survival: doubled
[1]; versus control cohort, single dose at 2 weeks post-implantation
  ΔMedian Survival: 46 days
[2]
  prolongation of survival: 4 weeks
[3]; after a single dose of TIC10
  duration of sustained serum levels of secreted TRAIL: 3 to 4 days
[3]; [30]
  duration of elevated serum levels of TRAIL: greater than 72 hours
  time at which serum TRAIL induced by TIC10 was detected following administration: 2 h
[4]
  GI50: low micromolar range
[5]
  effect on tumor: tumor regression
[6]
  effect on tumor: sustained regression
[7]
  effect on tumor: sustained anti-tumor efficacy
[8]
  effect on tumor: sustained regression
[9]
  tolerability / body weight at endpoint: well tolerated
[10]
  blood-brain barrier crossing: crosses the blood-brain barrier
[11]
  thermal stability of cytotoxic activity: thermally stable
[12]
  TRAIL mRNA levels: dose-dependent increase
[13]
  TRAIL protein localized to the cell surface: dose-dependent increase
[14]
  cytotoxicity in primary colon cancer cells: potent cytotoxic effects
[15]
  pAkt and pERK levels: abolished
[16]
  TRAIL protein in normal tissues (IHC): upregulated at the protein level in the brain, kidney, and spleen
  toxicity in normal tissues by histology and TUNEL staining: without apparent toxicity
[17]
  clonogenic survival: decreased the clonogenic survival
[18]
  sub-G1 DNA content: induced sub-G1 DNA content
[19]
  cell cycle profile of normal fibroblasts: without altering the cell cycle profiles
[20]
  cytotoxicity in freshly isolated GBM cells: cytotoxic effects
[21]
  TRAIL promoter luciferase reporter activity: induced TRAIL promoter-dependent transcriptional activity
[22]
  effect on tumor: tumor stasis
[23]
  effect on tumor: regression
[24]; 25 mg/kg intravenous, plasma
  t1/2α: 2.82 min
  t1/2β: 385 min
[24]; [31]
  α: 14.9 h⁻¹
  β: 0.108 h⁻¹
[24]; [32]
  AUC(0-inf): 63.9 µM·h
  Cmax: 44.2 µM
  Tmax: 1.2 min
  Vd: 9.39 L/kg
  clearance: 1.01 L/h/kg
[25]
  effects on body weight or liver histology: no adverse effects on body weight or liver histology
[26]
  effect on normal fibroblasts in colony formation experiment: sparing normal fibroblasts
[27]; oral TIC10 25 mg/kg weekly for 4 weeks, immuno-competent mice
  changes in a panel of serum chemistry markers: did not cause any changes
[27]; [33]
  Albumin: 2.9 g/dL
  Alkaline phosphate: 112 ± 12 U/L
  Blood urea nitrogen: 33.75 ± 7.3 mg/dL
  Chloride: 104 mM
  Creatinine: 0.15 ± .06 mg/dL
  Lactate dehyrogenase: 287.5 ± 125 U/L
  Potassium: 7.325 ± 3.2 mM
  Sodium: 154.5 ± 5.2 mM
  Total Protein: 4.97 ± .61 g/dL
  Total bilirubin: 2.725 ± 2.4 mg/dL

## TRAIL: Purified, recombinant TRAIL (TNF-related apoptosis-inducing ligand; Apo2L)
[28]
  serum half-life: 20 to 30 min
[28]; listed as recombinant TRAIL
  serum half-life: ~30 min
[22]
  effect on tumor: progressed
[23]
  effect on tumor: progressed

## bevacizumab [reference compound]
[1]; [29]
  Median Survival: 70 days
